The record followed here is ChEMBL document CHEMBL6120970, “Discovery and Functional Characterization of a Potent, Selective, and Metabolically Stable PROTAC of the Protein Kinases DYRK1A and DYRK1B” (J Med Chem, 2024).

The structures appear in SMILES notation.

For experiment [1], the target named is T1, Protein cereblon/Dual specificity tyrosine-phosphorylation-regulated kinase 1A (Homo sapiens, UniProt Q13627+Q96SW2). The experiment in a line: Competitive binding affinity to CRBN/DYRK1A (unknown origin) assessed as dissociation constant. The class given is protein assay.
Experiment [2] concerns the target Protein cereblon/Dual specificity tyrosine-phosphorylation-regulated kinase 1B (Homo sapiens, UniProt Q96SW2+Q9Y463). Put plainly: Competitive binding affinity to CRBN/DYRK1B (unknown origin) assessed as dissociation constant. The format is protein assay.
Experiment [3] addresses T1, Protein cereblon/Dual specificity tyrosine-phosphorylation-regulated kinase 1A. Put plainly: PROTAC activity at CRBN/HibiT-tagged DYRK1A in Flp-In-T-REx-293 cells assessed as induction of degradation of DYRK1A by measuring maximum efficacy at 1 uM measured after 24 hrs by NanoBiT luciferase assay relative to control. The class given is cell-based.
The target in experiment [4] is Protein cereblon/Dual specificity tyrosine-phosphorylation-regulated kinase 1B (Homo sapiens) (UniProt Q9Y463+Q96SW2). The experiment in a line: PROTAC activity at CRBN/HibiT-tagged DYRK1B in Flp-In-T-REx-293 cells assessed as induction of degradation of DYRK1B by measuring maximum efficacy at 1 uM measured after 24 hrs by NanoBiT luciferase assay relative to control. The class given is cell-based.

In experiment [5] the target is von Hippel-Lindau disease tumor suppressor/Dual specificity tyrosine-phosphorylation-regulated kinase 1A (Homo sapiens, UniProt P40337+Q13627). Put plainly: Competitive binding affinity to VHL/DYRK1A (unknown origin) assessed as dissociation constant by competition binding assay. The class given is protein assay.
The target in experiment [6] is von Hippel-Lindau disease tumor suppressor/Dual specificity tyrosine-phosphorylation-regulated kinase 1B (Homo sapiens, UniProt P40337+Q9Y463). The experiment in a line: Competitive binding affinity to VHL/DYRK1B (unknown origin) assessed as dissociation constant. The format is protein assay.
Experiment [7] deals with von Hippel-Lindau disease tumor suppressor/Dual specificity tyrosine-phosphorylation-regulated kinase 1A (Homo sapiens) (UniProt Q13627+P40337). The experiment in a line: PROTAC activity at VHL/HibiT-tagged DYRK1A in Flp-In-T-REx-293 cells assessed as induction of degradation of DYRK1A by measuring maximum efficacy at 0.3 uM measured after 24 hrs by NanoBiT luciferase assay relative to control. The format is cell-based.

Experiment [8] deals with von Hippel-Lindau disease tumor suppressor/Dual specificity tyrosine-phosphorylation-regulated kinase 1B (Homo sapiens) (UniProt Q9Y463+P40337). Put plainly: PROTAC activity at VHL/HibiT-tagged DYRK1B in Flp-In-T-REx-293 cells assessed as induction of degradation of DYRK1B by measuring maximum efficacy at 0.3 uM measured after 24 hrs by NanoBiT luciferase assay relative to control. The class given is cell-based.

What is called Kd is the free concentration of one partner at which half of the binding sites on the other are occupied at equilibrium, for simple one-to-one binding. One may read the Emax as the greatest response seen or fitted, relative to the assay's reference. `Cc1nc2ccc(-c3ccnc(N)c3)nc2n1-c1ccc(N2CCN(CCOCCOCCOCCC(=O)N3CCN(Cc4ccc(CNc5cccc6c5CN(C5CCC(=O)NC5=O)C6=O)cc4)CC3)CC2)c(F)c1` (stereo not given): the dissociation constant Kd in experiment [1] turned out to be 5.6 nM; in experiment [2], 16 nM. Also, the maximal effect (Emax) in experiment [3] and in experiment [4] was 0% throughout.
As for `Cc1nc2ccc(-c3ccnc(N)c3)nc2n1-c1ccc(N2CCN(C(=O)CCN3CCN(Cc4ccc(CNc5cccc6c5CN(C5CCC(=O)NC5=O)C6=O)cc4)CC3)CC2)c(F)c1` (stereo not given), the dissociation constant Kd in experiment [1] amounted to 20 nM; in experiment [2], 47 nM. In addition, the Emax was 24% in experiment [3] and 14% in experiment [4].
In the case of `Cc1nc2ccc(-c3ccnc(N)c3)nc2n1-c1ccc(N2CCN(CCOCCOCCOCCC(=O)N3CCN(c4ccc5c(c4)C(=O)N(C4CCC(=O)NC4=O)C5=O)CC3)CC2)c(F)c1` (stereo not given), the dissociation constant (Kd) in experiment [1] was found to be 5.9 nM. The Emax turned out to be 9% in experiment [3] and 0% in experiment [4].
The corresponding values for `Cc1nc2ccc(-c3ccnc(N)c3)nc2n1-c1ccc(N2CCN(CCOCCOCCOCCC(=O)NC3CN(c4ccc5c(c4)C(=O)N(C4CCC(=O)NC4=O)C5=O)C3)CC2)c(F)c1` (stereo not given) are 3.2 nM, 27% and 0%.
Turning to `Cc1nc2ccc(-c3ccnc(N)c3)nc2n1-c1ccc(N2CCN(CCOCCOCCOCCOCCNc3cc4c(cc3F)C(=O)N(C3CCC(=O)NC3=O)C4=O)CC2)c(F)c1` (stereo not given), the equilibrium dissociation constant (Kd) in experiment [1] was 13 nM; in experiment [2], 43 nM. The figures for the maximal effect (Emax) in experiment [3] and in experiment [4] were 80% and 58%, respectively.
The matching figures for `Cc1nc2ccc(-c3ccnc(N)c3)nc2n1-c1ccc(N2CCN(C(=O)CCCN3CCC(n4cc(CNc5cccc6c5C(=O)N(C5CCC(=O)NC5=O)C6=O)cn4)CC3)CC2)c(F)c1` (stereo not given): 2.8 nM, 5.1 nM, 79% and 63%.
Consider `Cc1nc2ccc(-c3ccnc(N)c3)nc2n1-c1ccc(N2CCN(C(=O)CCCCN3CCN(Cc4ccc(CNc5cccc6c5CN(C5CCC(=O)NC5=O)C6=O)cc4)CC3)CC2)c(F)c1` (stereo not given), for which the dissociation constant Kd in experiment [1] stood at 3.3 nM; in experiment [2] it was 8.4 nM. Besides, the values for the Emax in experiment [3] and in experiment [4] were 63% and 38%, respectively.
As to `Cc1ncsc1-c1ccc(CNC(=O)[C@@H]2C[C@@H](O)CN2C(=O)[C@@H](NC(=O)CCOCCN2CCN(c3ccc(-n4c(C)nc5ccc(-c6ccnc(N)c6)nc54)cc3F)CC2)C(C)(C)C)cc1`, the results for the dissociation constant Kd in experiment [5] and in experiment [6] were 3.4 nM and 5.5 nM, respectively. Also, the maximum response (Emax) turned out to be 11% in experiment [7] and 0% in experiment [8].
Regarding `Cc1nc2ccc(-c3ccnc(N)c3)nc2n1-c1ccc(N2CCN(C(=O)CN3CCC(CC(=O)N4CCC(n5cc(CNc6cccc7c6C(=O)N(C6CCC(=O)NC6=O)C7=O)cn5)CC4)CC3)CC2)c(F)c1` (stereo not given), the Kd in experiment [1] stood at 0.64 nM. For the same molecule, the Emax stood at 78% in experiment [3] and 65% in experiment [4].
For `Cc1ncsc1-c1ccc(CNC(=O)[C@@H]2C[C@@H](O)CN2C(=O)[C@@H](NC(=O)CCOCCOCCN2CCN(c3ccc(-n4c(C)nc5ccc(-c6ccnc(N)c6)nc54)cc3F)CC2)C(C)(C)C)cc1`, the Kd is 2.2 nM in experiment [5] and 6.9 nM in experiment [6]. Further, the maximal effect (Emax) in experiment [7] was determined as 5%; in experiment [8] it was 2%.
`Cc1nc2ccc(-c3ccnc(N)c3)nc2n1-c1ccc(N2CCN(C(=O)CCCN3CCN(Cc4ccc(CNc5cccc6c5CN(C5CCC(=O)NC5=O)C6=O)cc4)CC3)CC2)c(F)c1` (stereo not given): the equilibrium dissociation constant (Kd) amounted to 1.7 nM in experiment [1] and 5.2 nM in experiment [2]. Moreover, the values for the maximal response (Emax) in experiment [3] and in experiment [4] were 75% and 54%, respectively.
`Cc1ncsc1-c1ccc(CNC(=O)[C@@H]2C[C@@H](O)CN2C(=O)[C@@H](NC(=O)CCOCCOCCOCCOCCN2CCN(c3ccc(-n4c(C)nc5ccc(-c6ccnc(N)c6)nc54)cc3F)CC2)C(C)(C)C)cc1`: the results for the dissociation constant Kd in experiment [5] and in experiment [6] were 1.4 nM and 6.6 nM, respectively. The maximal response (Emax) in experiment [7] and in experiment [8] was 0% throughout.
